Laboratory results: ChEMBL document CHEMBL5303573, “Mapping human microbiome drug metabolism by gut bacteria and their genes” (Nature, 2019)

What was measured:
[1] = The drug is tested on Bacteroides coprophilus strain: DSM18228 for biotransformation. The drug concentrations were measured before and after a 12-h incubation by liquid-chromatography-coupled mass spectrometry (LC–MS); conditions: 2 µM
[2] = The drug is tested on Bacteroides finegoldii strain: DSM17565 for biotransformation. The drug concentrations were measured before and after a 12-h incubation by liquid-chromatography-coupled mass spectrometry (LC–MS); conditions: 2 µM
[3] = The drug is tested on Bacteroides ovatus strain: ATCC8483 for biotransformation. The drug concentrations were measured before and after a 12-h incubation by liquid-chromatography-coupled mass spectrometry (LC–MS); conditions: 2 µM
[4] = The drug is tested on Bacteroides sp. WH2 strain: WH2 for biotransformation. The drug concentrations were measured before and after a 12-h incubation by liquid-chromatography-coupled mass spectrometry (LC–MS); conditions: bacteroides sp. wh2, 12 h, 2 µM
[5] = The drug is tested on Odoribacter splanchnicus strain: fecal isolate for biotransformation. The drug concentrations were measured before and after a 12-h incubation by liquid-chromatography-coupled mass spectrometry (LC–MS); conditions: 2 µM
[6] = The drug is tested on Anaerococcus hydrogenalis strain: DSM7454 for biotransformation. The drug concentrations were measured before and after a 12-h incubation by liquid-chromatography-coupled mass spectrometry (LC–MS); conditions: 2 µM
[7] = The drug is tested on Clostridium sporogenes strain: ATCC15579 for biotransformation. The drug concentrations were measured before and after a 12-h incubation by liquid-chromatography-coupled mass spectrometry (LC–MS); conditions: 2 µM
[8] = The drug is tested on Dorea formicigenerans strain: ATCC27755 for biotransformation. The drug concentrations were measured before and after a 12-h incubation by liquid-chromatography-coupled mass spectrometry (LC–MS); conditions: 2 µM
[9] = The drug is tested on Eubacterium hallii strain: DSM3353 for biotransformation. The drug concentrations were measured before and after a 12-h incubation by liquid-chromatography-coupled mass spectrometry (LC–MS); conditions: anaerobutyricum hallii, 2 µM
[10] = bifidobacterium adolescentis, 12 h, 2 µM
Description: The drug is tested on Bifidobacterium adolescentis strain: ATCC 15703 for biotransformation. The drug concentrations were measured before and after a 12-h incubation by liquid-chromatography-coupled mass spectrometry (LC–MS)

[11] = bacteroides eggerthii, 12 h, 2 µM
Description: The drug is tested on Bacteroides eggerthii strain: DSM20697 for biotransformation. The drug concentrations were measured before and after a 12-h incubation by liquid-chromatography-coupled mass spectrometry (LC–MS)

[12] = bacteroides fragilis, 12 h, 2 µM
Description: The drug is tested on Bacteroides fragilis strain: NCTC 9343 for biotransformation. The drug concentrations were measured before and after a 12-h incubation by liquid-chromatography-coupled mass spectrometry (LC–MS)

[13] = bacteroides fragilis, 12 h, 2 µM; remark: listed apart in the source
Description: The drug is tested on Bacteroides fragilis strain: DS-208 for biotransformation. The drug concentrations were measured before and after a 12-h incubation by liquid-chromatography-coupled mass spectrometry (LC–MS)

[14] = bacteroides thetaiotaomicron, 12 h, 2 µM
Description: The drug is tested on Bacteroides thetaiotaomicron strain: 3731 for biotransformation. The drug concentrations were measured before and after a 12-h incubation by liquid-chromatography-coupled mass spectrometry (LC–MS)

[15] = segatella copri, 12 h, 2 µM
Description: The drug is tested on Prevotella copri strain: DSM18205 for biotransformation. The drug concentrations were measured before and after a 12-h incubation by liquid-chromatography-coupled mass spectrometry (LC–MS)

[16] = roseburia intestinalis, 12 h, 2 µM
Description: The drug is tested on Roseburia intestinalis strain: L1-82 for biotransformation. The drug concentrations were measured before and after a 12-h incubation by liquid-chromatography-coupled mass spectrometry (LC–MS)

[17] = The drug is tested on Bacteroides fragilis strain: HMW610 for biotransformation. The drug concentrations were measured before and after a 12-h incubation by liquid-chromatography-coupled mass spectrometry (LC–MS); conditions: 2 µM
[18] = akkermansia muciniphila, 12 h, 2 µM
Description: The drug is tested on Akkermansia muciniphila strain: ATCC BAA-835 for biotransformation. The drug concentrations were measured before and after a 12-h incubation by liquid-chromatography-coupled mass spectrometry (LC–MS)

Compound | Bacterial Biotransformation [1] | Bacterial Biotransformation [2] | Bacterial Biotransformation [3] | Bacterial Biotransformation [4] | Bacterial Biotransformation [5] | Bacterial Biotransformation [6] | Bacterial Biotransformation [7] | Bacterial Biotransformation [8] | Bacterial Biotransformation [9] | Bacterial Biotransformation [10] | Bacterial Biotransformation [11] | Bacterial Biotransformation [12] | Bacterial Biotransformation [13] | Bacterial Biotransformation [14] | Bacterial Biotransformation [15] | Bacterial Biotransformation [16] | Bacterial Biotransformation [17] | Bacterial Biotransformation [18]
CN1CCC(OC(c2ccccc2)c2ccccc2)CC1 | Compound NOT metabolized | Compound NOT metabolized | Compound NOT metabolized | Compound NOT metabolized | Compound NOT metabolized | Compound NOT metabolized | Compound NOT metabolized | Compound NOT metabolized | Compound NOT metabolized | Compound NOT metabolized | Compound NOT metabolized | Compound NOT metabolized | Compound NOT metabolized | Compound NOT metabolized | Compound NOT metabolized | Compound NOT metabolized | – | –
CN1[C@@H]2CC[C@H]1C[C@@H](OC(=O)C(CO)c1ccccc1)C2 (stereo not given in full) [ATROPINE] | Compound NOT metabolized | Compound NOT metabolized | – | Compound NOT metabolized | Compound NOT metabolized | Compound NOT metabolized | – | Compound NOT metabolized | Compound NOT metabolized | Compound NOT metabolized | Compound NOT metabolized | Compound NOT metabolized | – | – | Compound NOT metabolized | Compound NOT metabolized | Compound NOT metabolized | Compound NOT metabolized
CCN(CC)CCOC(=O)C1(C2CCCCC2)CCCCC1 [DICYCLOMINE] | Compound NOT metabolized | – | Compound NOT metabolized | Compound NOT metabolized | – | Compound NOT metabolized | Compound NOT metabolized | Compound NOT metabolized | Compound NOT metabolized | Compound NOT metabolized | Compound NOT metabolized | Compound NOT metabolized | Compound NOT metabolized | Compound NOT metabolized | Compound NOT metabolized | – | Compound NOT metabolized | –
CC(C)N(CCC(C(N)=O)(c1ccccc1)c1ccccn1)C(C)C.O=P(O)(O)O (stereo not given) [DISOPYRAMIDE PHOSPHATE] | Compound NOT metabolized | Compound NOT metabolized | Compound NOT metabolized | Compound NOT metabolized | Compound NOT metabolized | Compound NOT metabolized | – | Compound NOT metabolized | Compound NOT metabolized | Compound NOT metabolized | Compound NOT metabolized | – | Compound NOT metabolized | – | Compound NOT metabolized | Compound NOT metabolized | Compound NOT metabolized | Compound NOT metabolized
CN(C)CCC=C1c2ccccc2COc2ccccc21 [DOXEPIN] | Compound NOT metabolized | Compound NOT metabolized | Compound NOT metabolized | Compound NOT metabolized | Compound NOT metabolized | Compound NOT metabolized | Compound NOT metabolized | Compound NOT metabolized | Compound NOT metabolized | Compound NOT metabolized | Compound NOT metabolized | – | Compound NOT metabolized | Compound NOT metabolized | Compound NOT metabolized | Compound NOT metabolized | Compound NOT metabolized | –
O=C(CCCN1CCC(O)(c2ccc(Cl)cc2)CC1)c1ccc(F)cc1 [HALOPERIDOL] | – | Compound NOT metabolized | Compound NOT metabolized | Compound NOT metabolized | Compound NOT metabolized | Compound NOT metabolized | Compound NOT metabolized | Compound NOT metabolized | Compound NOT metabolized | Compound NOT metabolized | Compound NOT metabolized | Compound NOT metabolized | Compound NOT metabolized | Compound NOT metabolized | Compound NOT metabolized | Compound NOT metabolized | Compound NOT metabolized | Compound NOT metabolized
Cc1ccc(NC(=O)c2ccc(CN3CCN(C)CC3)cc2)cc1Nc1nccc(-c2cccnc2)n1 [IMATINIB] | Compound NOT metabolized | Compound NOT metabolized | Compound NOT metabolized | Compound NOT metabolized | Compound NOT metabolized | Compound NOT metabolized | – | Compound NOT metabolized | – | Compound NOT metabolized | Compound NOT metabolized | – | Compound NOT metabolized | Compound NOT metabolized | Compound NOT metabolized | Compound NOT metabolized | Compound NOT metabolized | Compound NOT metabolized
CCN(CC)CCNC(=O)c1cc(Cl)c(N)cc1OC [METOCLOPRAMIDE] | Compound NOT metabolized | Compound NOT metabolized | Compound NOT metabolized | Compound NOT metabolized | Compound NOT metabolized | Compound NOT metabolized | Compound NOT metabolized | Compound NOT metabolized | Compound NOT metabolized | Compound NOT metabolized | Compound NOT metabolized | Compound NOT metabolized | Compound NOT metabolized | Compound NOT metabolized | Compound NOT metabolized | Compound NOT metabolized | Compound NOT metabolized | –
CN1CCOC(c2ccccc2)c2ccccc2C1 (stereo not given) [NEFOPAM] | Compound NOT metabolized | Compound NOT metabolized | Compound NOT metabolized | Compound NOT metabolized | – | Compound NOT metabolized | – | Compound NOT metabolized | Compound NOT metabolized | Compound NOT metabolized | Compound NOT metabolized | Compound NOT metabolized | Compound NOT metabolized | Compound NOT metabolized | Compound NOT metabolized | Compound NOT metabolized | Compound NOT metabolized | –
Cc1cc2c(s1)Nc1ccccc1N=C2N1CCN(C)CC1 [OLANZAPINE] | Compound metabolized | Compound NOT metabolized | – | – | Compound metabolized | Compound NOT metabolized | Compound NOT metabolized | Compound NOT metabolized | Compound NOT metabolized | Compound NOT metabolized | Compound NOT metabolized | Compound NOT metabolized | Compound NOT metabolized | Compound NOT metabolized | Compound NOT metabolized | Compound NOT metabolized | Compound metabolized | Compound NOT metabolized
